Assay results taken from US11401264B2, “Heterocyclic compound” (Orizuru Therapeutics, Inc., priority 2018, dated 2022).

Tested on: cardiomyocytes from double knock-in human iPS cell lines (mCherry at TNNI3 locus)
Experiment: Experimental Example 1: mCherry (TNNI3 reporter) immunostaining measured by high contents screening
Assay type: cell-based
Parameters: key to average fluorescent intensity (at 30 μM): —: The symbol in Table 2 means that the average fluorescent intensity cannot be evaluated due to cell decrease
Conditions: read on 8th day, Alexa 647 anti-mCherry, control well 797; for average fluorescent intensity (at 1 μM): test compound 1 μM added on 3rd and 6th culture days; for average fluorescent intensity (at 30 μM): test compound 30 μM added on 3rd and 6th culture days
Description: For detection of cardiomyocyte maturation, double knock-in human iPS cell lines, in which reporter protein sequences, EmGFP (Sequence Number 1) and mCherry (Sequence Number 2) were inserted into gene loci for TNNI1 and TNNI3, respectively, were prepared (the human iPS cells were prepared from episomal vector (loaded gene; OCT3/4, KLF4, SOX2, L-MYC, LIN28, mouse p53DD) using PBMC (LP_167, Sample ID: 20130318) purchased from CTL (reference literature; Okita K, et al. Stem Cells. 2012 Nov. 29. doi: 10.1002/stem.1293)).
The maintenance culture of the above-mentioned reporter iPS cell lines was carried out by a conventional method (Okita K, et al. Stem Cells. 2012 Nov. 29. doi: 10.1002/stem.1293).
For differentiation induction into cardiomyocytes, the reporter iPS cell lines were treated with 0.5×TrypLE select (Life Technologies, diluted in 1/2 with 0.5 mM EDTA/PBS) for 4 to 5 minutes, and the cells were exfoliated using a cell scraper (IWAKI), and then dissociated into the single cell by pipetting. The medium was removed by centrifugation (1,000 rpm, 5 min), and the obtained cells were seeded on a bioreactor (ABLE) by 1×10^7 cells per 30 mL of the bioreactor, and then cultured in a medium prepared by adding 1% L-glutamine, transferrin 150 μg/mL, ascorbic acid 50 μg/mL (Sigma), monothioglycerol 4×10^−4 M, 10 μM Rock inhibitor (Y-27632), 2 ng/mL BMP4 (R&D) and 0.5% Matrigel (Growth Factor Reduced) to a medium after removal of solution C from StemFit AK02 (AJINOMOTO AK02, 400 mL of solution A and 100 mL of B solution, total 500 mL), at 37° C., under 5% oxygen condition (55 rpm, stirred suspension culture method) to form embryoid bodies (0 day).
Next day (1st day), 9 μL (final concentration 3 ng/mL) of 10 μg/mL activin A, 15 μL (final concentration 5 ng/mL) of 10 μg/mL bFGF and […] (final concentration 10 ng/mL) of 10 μg/mL BMP4 were added to the bioreactor, and the cells were cultured at 37° C. for additional 2 days, under 5% oxygen condition.
Then (3rd day), the obtained embryoid bodies were collected in a 50 mL centrifuge tube, and then subjected to centrifugation (200 g, 1 min). The medium was removed, and the embryoid bodies were cultured in a medium prepared by adding 1% L-glutamine, transferrin 150 μg/mL, ascorbic acid 50 μg/mL (Sigma), monothioglycerol 4×10^−4 M, 10 ng/mL VEGF, 1 μM IWP-3, 0.6 μM dorsomorphin and 5.4 μM SB431542 to a medium after removal of solution C from StemFit AK02 (AJINOMOTO AK02, 400 mL of solution A and 100 mL of B solution, total 500 mL), at 37° C. for 3 days, under 5% oxygen condition (55 rpm, stirred suspension culture method).
Then (6th day), the bioreactor was left to stand to precipitate the embryoid bodies, and 80 to 90% of the medium was removed. A medium prepared by adding 1% L-glutamine, transferrin 150 μg/mL, ascorbic acid 50 μg/mL (Sigma), monothioglycerol […] and 5 ng/mL VEGF to a medium after removal of solution C from StemFit AK02 (AJINOMOTO AK02, 400 mL of solution A and 100 mL of B solution, total 500 mL) was added to the bioreactor so that the total volume became 30 mL, and the embryoid bodies were cultured for 8 days, at 37° C., under 5% oxygen condition (55 rpm, stirred suspension culture method). During the culture, the medium was replaced with a medium under the same conditions every 2 to 3 days.
14th Day after the start of the differentiation induction, the embryoid bodies were treated with 2 mg/mL collagenase type I (Sigma) for 2 hr, and then with 0.25% trypsin/EDTA (Invitrogen) for 10 min. 50% FBS/IMDM (Thermo Fisher Science) was added thereto, and the embryoid bodies were dissociated into the single cell by pipetting, and then subjected to centrifugation (1,000 rpm, 5 minutes). […]

Row | Compound | average fluorescent intensity (at 1 μM) | average fluorescent intensity (at 30 μM)
1 | O=C(O)COc1ccc(-c2nc3cc(N4Cc5cc(N6CCOCC6)ccc5C4=O)ccc3[nH]2)cc1 [Example 51, (4-(5-(5-(morpholin-4-yl)-1-oxo-1,3-dihydro-2H-isoindol-2-yl)-1H-benzimidazol-2-yl)phenoxy)acetic acid] | 963 | 1279
2 | CC(C)NC(=O)COc1ccc(-c2nc3cc(N4Cc5cc(N6CCOCC6)ccc5C4=O)ccc3[nH]2)cc1 [Example 29, N-isopropyl-2-(4-(5-(5-(morpholin-4-yl)-1-oxo-1,3-dihydro-2H-isoindol-2-yl)-1H-benzimidazol-2-yl)phenoxy)acetamide] | 1120 | 910
3 | O=C(COc1ccc(-c2nc3cc(N4Cc5cc(N6CCOCC6)ccc5C4=O)ccc3[nH]2)cc1)N1CCOCC1 [Example 32, 5-(morpholin-4-yl)-2-(2-(4-(2-(morpholin-4-yl)-2-oxoethoxy)phenyl)-1H-benzimidazol-5-yl)isoindolin-1-one] | 1312 | 1937
4 | O=C(COc1ccc(-c2nc3cc(N4Cc5cc(N6CCCCC6)ccc5C4=O)ccc3[nH]2)cc1)Nc1ccc(Cl)cc1 [Example 21, N-(4-chlorophenyl)-2-(4-(5-(1-oxo-5-(piperidin-1-yl)-1,3-dihydro-2H-isoindol-2-yl)-1H-benzimidazol-2-yl)phenoxy)acetamide] | 1120 | —
5 | O=C1c2ccc(N3CCOCC3)cc2CN1c1ccc2[nH]c(-c3ccc(F)cc3)nc2c1 [Example 67, 2-(2-(4-fluorophenyl)-1H-benzimidazol-5-yl)-5-(morpholin-4-yl)isoindolin-1-one] | 1367 | 1188
6 | CCCNC(=O)COc1ccc(-c2nc3cc(N4Cc5cc(N6CCOCC6)ccc5C4=O)ccc3[nH]2)cc1 [Example 49, 2-(4-(5-(5-(morpholin-4-yl)-1-oxo-1,3-dihydro-2H-isoindol-2-yl)-1H-benzimidazol-2-yl)phenoxy)-N-propylacetannide] | 1382 | 890
7 | COCc1ccc(-c2nc3cc(N4Cc5cc(N6CCOCC6)ccc5C4=O)ccc3[nH]2)cc1 [Example 66, 2-(2-(4-(methoxymethyl)phenyl)-1H-benzimidazol-5-yl)-5-(morpholin-4-yl)isoindolin-1-one] | 1338 | 1358
8 | O=C(COc1ccc(-c2nc3cc(N4Cc5cc(N6CCCCC6)ccc5C4=O)ccc3[nH]2)cc1)NC/C=C/CCc1ccccc1 [Example 9, 2-(4-(5-(1-oxo-5-(piperidin-1-yl)-1,3-dihydro-2H-isoindol-2-yl)-1H-benzimidazol-2-yl)phenoxy)-N-((2E)-5-phenylpent-2-en-1-yl)acetamide] | 948 | —
9 | COC(=O)COc1ccc(-c2nc3cc(N4Cc5cc(N6CCCCC6)ccc5C4=O)ccc3[nH]2)cc1 [Example 5, methyl (4-(5-(l-oxo-5-(piperidin-1-yl)-1,3-dihydro-2H-isoindol-2-yl)-1H-benzimidazol-2-yl)phenoxy)acetate] | 1078 | —
10 | O=C(COc1ccc(-c2nc3cc(N4Cc5cc(N6CCCCC6)ccc5C4=O)ccc3[nH]2)cc1)Nc1ccc(F)cc1 [Example 19, N-(4-fluorophenyl)-2-(4-(5-(1-oxo-5-(piperidin-1-yl)-1,3-dihydro-2H-isoindol-2-yl)-1H-benzimidazol-2-yl)phenoxy)acetamide] | 1292 | 860
11 | O=C1c2ccc(N3CCCCC3)cc2CN1c1ccc2[nH]c(-c3ccccc3)nc2c1 [Example 1, 2-(2-phenyl-1H-benzimidazol-5-yl)-5-(piperidin-1-yl)isoindolin-1-one] | 1098 | —
12 | O=C(COc1ccc(-c2nc3cc(N4Cc5cc(N6CCOCC6)ccc5C4=O)ccc3[nH]2)cc1)N1CCCCC1 [Example 33, 5-(morpholin-4-yl)-2-(2-(4-(2-oxo-2-(piperidin-1-yl)ethoxy)phenyl)-1H-benzimidazol-5-yl)isoindolin-1-one] | 1568 | 3010
13 | CCOc1ccc(-c2nc3cc(N4Cc5cc(-n6cccc6)ccc5C4=O)ccc3[nH]2)cc1 [Example 63, 2-(2-(4-ethoxyphenyl)-1H-benzimidazol-5-yl)-5-(1H-pyrrol-1-yl)isoindolin-1-one] | 1194 | —
14 | O=C1c2ccc(N3CCCCC3)cc2CN1c1ccc2[nH]c(C3CCOCC3)nc2c1 [Example 43, 5-(piperidin-1-yl)-2-(2-(tetrahydro-2H-pyran-4-yl)-1H-benzimidazol-5-yl)isoindolin-1-one] | 1087 | 1153
15 | CC1(NC(=O)COc2ccc(-c3nc4cc(N5Cc6cc(N7CCCCC7)ccc6C5=O)ccc4[nH]3)cc2)CC1 [Example 18, N-(1-methylcyclopropyl)-2-(4-(5-(1-oxo-5-(piperidin-1-yl)-1,3-dihydro-2H-isoindol-2-yl)-1H-benzimidazol-2-yl)phenoxy)acetamide] | 1272 | 1704
16 | CCCNC(=O)COc1ccc(-c2nc3cc(N4Cc5cc(N6CCCCC6)ccc5C4=O)ccc3[nH]2)cc1 [Example 28, 2-(4-(5-(1-oxo-5-(piperidin-1-yl)-1,3-dihydro-2H-isoindol-2-yl)-1H-benzimidazol-2-yl)phenoxy)-N-propylacetamide] | 1540 | —
17 | O=C(COc1ccc(-c2nc3cc(N4Cc5cc(N6CCOCC6)ccc5C4=O)ccc3[nH]2)cc1)NCc1ccccc1 [Example 36, N-benzyl-2-(4-(5-(5-(morpholin-4-yl)-1-oxo-1,3-dihydro-2H-isoindol-2-yl)-1H-benzimidazol-2-yl)phenoxy)acetamide] | 1006 | 1743
18 | CCOc1ccc(-c2nc3cc(N4Cc5cc(N(C)C)ccc5C4=O)ccc3[nH]2)cc1 [Example 61, 5-(dimethylamino)-2-(2-(4-ethoxyphenyl)-1H-benzimidazol-5-yl)isoindolin-1-one] | 1150 | 
19 | O=C(COc1ccc(-c2nc3cc(N4Cc5cc(N6CCOCC6)ccc5C4=O)ccc3[nH]2)cc1)Nc1ccccc1 [Example 37, 2-(4-(5-(5-(rnorpholin-4-yl)-1-oxo-1,3-dihydro-2H-isoindol-2-yl)-1H-benzimidazol-2-yl)phenoxy)-N-phenylacetamide] | 1696 | 1290
20 | O=C(COc1ccc(-c2nc3cc(N4Cc5cc(N6CCOCC6)ccc5C4=O)ccc3[nH]2)cc1)N1CCCC1 [Example 34, 5-(morpholin-4-yl)-2-(2-(4-(2-oxo-2-(pyrrolidin-1-yl)ethoxy)phenyl)-1H-benzimidazol-5-yl)isoindolin-1-one] | 1540 | —
